The experiment deals with HCT-116. The experiment can be described thus: Cytotoxicity against human HCT116 cells. It counts as functional, cell-based.

Here are results for five compounds from ChEMBL document CHEMBL1150618, “Isotactic polymethoxydienes from the Philippines sponge Myriastra clavosa” (J Nat Prod, 2002).

Each structure is given as a SMILES string. pIC50: −log10 of the molar value.

Usually pIC50 stands for the negative decadic logarithm of the IC50, by convention in mol/L. As for `C=CC[C@@H](C[C@@H](C[C@@H](C[C@@H](C[C@@H](C[C@@H](C[C@@H](C[C@@H](C[C@H](OC)/C(C)=C/CCCCC)OC)OC)OC)OC)OC)OC)OC)OC`, the pIC50 is 4.07. Then `C=CC[C@@H](C[C@@H](C[C@@H](C[C@@H](C[C@@H](C[C@@H](C[C@@H](C[C@@H](C[C@@H](C[C@H](OC)/C(C)=C/CCCCC)OC)OC)OC)OC)OC)OC)OC)OC)OC`, with 4.12; and `C=CC[C@@H](C[C@@H](C[C@@H](C[C@@H](C[C@@H](C[C@@H](C[C@H](OC)/C(C)=C/CCCCC)OC)OC)OC)OC)OC)OC`, with 3.92. Then `C=CC[C@@H](C[C@@H](C[C@@H](C[C@@H](C[C@@H](C[C@@H](C[C@@H](C[C@H](OC)/C(C)=C/CCCCC)OC)OC)OC)OC)OC)OC)OC`, with 3.97. As for `C=CC[C@@H](C[C@@H](C[C@@H](C[C@@H](C[C@@H](C[C@@H](C[C@@H](C[C@@H](C[C@@H](C[C@@H](C[C@H](OC)/C(C)=C/CCCCC)OC)OC)OC)OC)OC)OC)OC)OC)OC)OC`, the pIC50 was 4.04.
